Patent US10285979B2, “Breast cancer therapeutic agent containing 5′-hydroxy-5-nitro-indirubin-3′-oxime as active ingredient” (ANYGEN CO., LTD., priority 2016, dated 2019)

Experiments:
[1] = test system: MDA-MB-231 breast cancer cell line; settings: flow cytometry
Text: (§1) Further, we have investigated the cell cycles of MDA-MB-231 breast cancer cell line through Flow cytometry analysis.

cyclin B1 expression = settings: western blot; G2/M phase
Text: as §1

BT-549 = settings: 10 μM; breast cancer cell line BT-549
Text: (§2) If the growth percent is 0%, it means that no further growth of cancer cells occurs, which is an ideal case.

NCI-H226 = settings: 10 μM; non-small cell lung cancer cell line NCI-H226
Text: as §2

NCI-H23 = settings: 10 μM; non-small cell lung cancer cell line NCI-H23
Text: as §2

SNB-75 = settings: 10 μM; CNS cancer cell line SNB-75
Text: as §2

HS 578T = settings: 10 μM; breast cancer cell line HS 578T
Text: as §2

SF-295 = settings: 10 μM; CNS cancer cell line SF-295
Text: as §2

U251 = settings: 10 μM; CNS cancer cell line U251
Text: as §2

SN12C = settings: 10 μM; renal cell carcinoma cell line SN12C
Text: as §2

NCI-H322M = settings: 10 μM; non-small cell lung cancer cell line NCI-H322M
Text: as §2

SW-620 = settings: 10 μM; colorectal cancer cell line SW-620
Text: as §2

A498 = settings: 10 μM; renal cell carcinoma cell line A498
Text: as §2

IGROV1 = settings: 10 μM; ovarian cancer cell line IGROV1
Text: as §2

T-47D = settings: 10 μM; breast cancer cell line T-47D
Text: as §2

NCI/ADR/RES = settings: 10 μM; ovarian cancer cell line NCI/ADR/RES
Text: as §2

HCC-2998 = settings: 10 μM; colorectal cancer cell line HCC-2998
Text: as §2

RPMI-8226 = settings: 10 μM; leukemia cell line RPMI-8226
Text: as §2

SK-MEL-4 = settings: 10 μM; malignant melanoma cell line SK-MEL-4
Text: as §2

UACC-62 = settings: 10 μM; malignant melanoma cell line UACC-62
Text: as §2

PC-3 = settings: 10 μM; prostate cancer cell line PC-3
Text: as §2

MALME-3M = settings: 10 μM; malignant melanoma cell line MALME-3M
Text: as §2

DU-145 = settings: 10 μM; prostate cancer cell line DU-145
Text: as §2

HOP-92 = settings: 10 μM; non-small cell lung cancer cell line HOP-92
Text: as §2

OVCAR-5 = settings: 10 μM; ovarian cancer cell line OVCAR-5
Text: as §2

SK-MEL-2 = settings: 10 μM; malignant melanoma cell line SK-MEL-2
Text: as §2

HT29 = settings: 10 μM; colorectal cancer cell line HT29
Text: as §2

SK-OV-3 = settings: 10 μM; ovarian cancer cell line SK-OV-3
Text: as §2

SF-268 = settings: 10 μM; CNS cancer cell line SF-268
Text: as §2

SF-539 = settings: 10 μM; CNS cancer cell line SF-539
Text: as §2

CCRE-CEM = settings: 10 μM; leukemia cell line CCRE-CEM
Text: as §2

HCT-116 = settings: 10 μM; colorectal cancer cell line HCT-116
Text: as §2

SR = settings: 10 μM; leukemia cell line SR
Text: as §2

MDA-MB-435 = settings: 10 μM; malignant melanoma cell line MDA-MB-435
Text: as §2

LOX IMVI = settings: 10 μM; malignant melanoma cell line LOX IMVI
Text: as §2

M14 = settings: 10 μM; malignant melanoma cell line M14
Text: as §2

K-562 = settings: 10 μM; leukemia cell line K-562
Text: as §2

NCI-H522 = settings: 10 μM; non-small cell lung cancer cell line NCI-H522
Text: as §2

TK-10 = settings: 10 μM; renal cell carcinoma cell line TK-10
Text: as §2

MOLT-4 = settings: 10 μM; leukemia cell line MOLT-4
Text: as §2

HOP-62 = settings: 10 μM; non-small cell lung cancer cell line HOP-62
Text: as §2

KM12 = settings: 10 μM; colorectal cancer cell line KM12
Text: as §2

With `O=C1Nc2ccc([N+](=O)[O-])cc2C1=C1Nc2ccc(O)cc2C1=NO` [AGM-130, (2′Z 3′E)-5′-hydroxy-5-nitro indirubin oxime] the cell cycle phases [1] was “decreased G1 phase and increased G2/M phase”, the “cyclin B1 expression” value (cyclin B1 expression) was “remarkably reduced” and the Growth percent (BT-549) was 4.59%. For the same compound, the Growth percent (NCI-H226) was −4.70%, the Growth percent (NCI-H23) was 3.19% and the Growth percent (SNB-75) was −28.05%. The Growth percent (HS 578T) was 1.21%, the Growth percent (SF-295) was 20.93% and the Growth percent (U251) was 0.60%. It also gave a Growth percent (SN12C) of 23.68%, a Growth percent (NCI-H322M) of 7.21% and a Growth percent (SW-620) of 3.18%. For the same compound, the Growth percent (A498) was −24.52%, the Growth percent (IGROV1) was 6.36% and the Growth percent (T-47D) was 16.80%. For the same compound, the Growth percent (NCI/ADR/RES) was 42.05%, the Growth percent (HCC-2998) was 8.93% and the Growth percent (RPMI-8226) was −7.92%. It also gave a Growth percent (SK-MEL-4) of −40.95%, a Growth percent (UACC-62) of −34.39% and a Growth percent (PC-3) of 2.12%. For the same compound, the Growth percent (MALME-3M) was 11.73%, the Growth percent (DU-145) was 6.72% and the Growth percent (HOP-92) was −3.09%. The Growth percent (OVCAR-5) was 11.33%, the Growth percent (SK-MEL-2) was −55.01% and the Growth percent (HT29) was 69.21%. It also gave a Growth percent (SK-OV-3) of −9.52%, a Growth percent (SF-268) of 6.50% and a Growth percent (SF-539) of −34.15%. The Growth percent (CCRE-CEM) was 0.49%, the Growth percent (HCT-116) was 2.29% and the Growth percent (SR) was 0.38%. It also gave a Growth percent (MDA-MB-435) of 9.35%, a Growth percent (LOX IMVI) of −32.44% and a Growth percent (M14) of 11.37%. The Growth percent (K-562) was 20.90%, the Growth percent (NCI-H522) was −79.07% and the Growth percent (TK-10) was 49.89%. For the same compound, the Growth percent (MOLT-4) was 2.17%, the Growth percent (HOP-62) was −9.77% and the Growth percent (KM12) was −32.96%.
